System: radiation induced gastrointestinal tract injury
Test: Radiation-induced gastrointestinal tract injury in mice, mucosal alteration histological scoring
Type: in vivo, male C57BL/6 mice
Conditions: enemas 75 mg/kg body weight for 9 days from day of irradiation; Cs-137 12 Gy to pelvic area; versus saline enemas
Procedure: Fourteen male C57BL/6 mice were treated with enemas containing either 75 mg/kg body weight of Mesna or saline as a control for 9 days post-exposure to Cs-137 radiation (12 Gy) in the pelvic area. Radiation Injury Histological Scoring (0=no change, 3=severe change) was employed to assess treatment efficacy. The present invention is based in part on the unexpected finding that the rectal administration of Mesna to mice experiencing radiation induced gastrointestinal tract injury, reduces symptoms of the condition. In the present study, 14 male C57BL/6 mice were randomly divided into two groups—treatment group and control group. The pelvic area (containing the ano-rectal part of the intestine) of each mouse was exposed to a Cs-137 source and irradiated over 2 minutes at a rate of 6 Gy/min (a 12 Gy dose). Starting from the day of irradiation and for a period of 9 days, mice in the treatment group received enemas containing Mesna at a dose of 75 mg/kg body weight. Animals in the control group received saline enemas as a control. Animals were sacrificed nine days post irradiation and gross necropsy of the anus, rectum and colon was performed and documented by high resolution color pictures. […]

## O=S(=O)([O-])CCS.[Na+] [Mesna, sodium 2-sulfanylethanesulfonate]
  mucosal alteration score (0=no change, 3=severe change): significantly reduced

Source: patent US9937136B2, “Methods for treating radiation induced gastrointestinal tract injury” (RDD PHARMA LTD., priority 2013, dated 2018)
